Measurements published in PubChem BioAssay (NCI).
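96-well plates; 48 h exposure; 5 concentrations. Endpoints by linear interpolation between flanking doses. Not reached: highest tested concentration assigned. GI50 = concentration required for 50% inhibition of growth. TGI denotes the concentration required for complete inhibition of growth.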

Key:
Assay in all cases: NCI tumour cell line growth inhibition, 48 h
DU-145 prostate = tested on: DU-145 prostate
UACC-257 melanoma = tested on: UACC-257 melanoma
CAKI-1 renal = tested on: CAKI-1 renal
SK-MEL-2 melanoma = tested on: SK-MEL-2 melanoma
T-47D breast = tested on: T-47D breast
M14 melanoma = tested on: M14 melanoma
OVCAR-8 ovarian = tested on: OVCAR-8 ovarian
NCI-H522 lung = tested on: NCI-H522 lung
SNB-75 CNS = tested on: SNB-75 CNS
SF-268 CNS = tested on: SF-268 CNS
SK-MEL-28 melanoma = tested on: SK-MEL-28 melanoma
HL-60(TB) leukemia = tested on: HL-60(TB) leukemia
786-0 renal = tested on: 786-0 renal
SK-OV-3 ovarian = tested on: SK-OV-3 ovarian
MDA-MB-231 breast = tested on: MDA-MB-231 breast
SK-MEL-5 melanoma = tested on: SK-MEL-5 melanoma
U251 CNS = tested on: U251 CNS
TK-10 renal = tested on: TK-10 renal
NCI-H226 lung = tested on: NCI-H226 lung
LOX IMVI melanoma = tested on: LOX IMVI melanoma
SF-539 CNS = tested on: SF-539 CNS
A549 NSCLC = tested on: A549 NSCLC
SNB-19 CNS = tested on: SNB-19 CNS
OVCAR-4 ovarian = tested on: OVCAR-4 ovarian
EKVX NSCLC = tested on: EKVX NSCLC
OVCAR-5 ovarian = tested on: OVCAR-5 ovarian
HS 578T breast = tested on: HS 578T breast
HCT-15 colon = tested on: HCT-15 colon
NCI/ADR-RES ovarian = tested on: NCI/ADR-RES ovarian
HOP-62 NSCLC = tested on: HOP-62 NSCLC
COLO 205 colon = tested on: COLO 205 colon
K-562 leukemia = tested on: K-562 leukemia
UACC-62 melanoma = tested on: UACC-62 melanoma
SR leukemia = tested on: SR leukemia
SN12C renal = tested on: SN12C renal
SF-295 CNS = tested on: SF-295 CNS
SW-620 colon = tested on: SW-620 colon
OVCAR-3 ovarian = tested on: OVCAR-3 ovarian
RPMI-8226 leukemia = tested on: RPMI-8226 leukemia
MDA-MB-435 = tested on: MDA-MB-435
NCI-H460 lung = tested on: NCI-H460 lung
MOLT-4 leukemia = tested on: MOLT-4 leukemia
IGROV1 ovarian = tested on: IGROV1 ovarian
RXF 393 renal = tested on: RXF 393 renal
UO-31 renal = tested on: UO-31 renal
KM12 colon = tested on: KM12 colon
PC-3 prostate = tested on: PC-3 prostate
HCT-116 colon = tested on: HCT-116 colon
BT-549 breast = tested on: BT-549 breast

## CC1OC(OC2C(O)C(OCCc3ccc(O)c(O)c3)OC(CO)C2OC(=O)/C=C/c2ccc(O)c(O)c2)C(O)C(O)C1OC1OCC(O)(CO)C1O (stereo not drawn)
DU-145 prostate
  GI50: 30.1 µM
  TGI: > 100 µM
UACC-257 melanoma
  GI50: > 100 µM
  TGI: > 100 µM
CAKI-1 renal
  GI50: 7.71 µM
  TGI: > 100 µM
SK-MEL-2 melanoma
  GI50: > 100 µM
  TGI: > 100 µM
T-47D breast
  GI50: > 100 µM
  TGI: > 100 µM
M14 melanoma
  GI50: > 100 µM
  TGI: > 100 µM
OVCAR-8 ovarian
  GI50: > 100 µM
  TGI: > 100 µM
NCI-H522 lung
  GI50: > 100 µM
  TGI: > 100 µM
SNB-75 CNS
  GI50: > 100 µM
  TGI: > 100 µM
SF-268 CNS
  GI50: 0.0141 µM
  TGI: 23.7 µM
SK-MEL-28 melanoma
  GI50: > 100 µM
  TGI: > 100 µM
HL-60(TB) leukemia
  GI50: 69.8 µM
  TGI: > 100 µM
786-0 renal
  GI50: 44.6 µM
  TGI: > 100 µM
SK-OV-3 ovarian
  GI50: > 100 µM
  TGI: > 100 µM
MDA-MB-231 breast
  GI50: > 100 µM
  TGI: > 100 µM
SK-MEL-5 melanoma
  GI50: > 100 µM
  TGI: > 100 µM
U251 CNS
  GI50: > 100 µM
  TGI: > 100 µM
TK-10 renal
  GI50: > 100 µM
  TGI: > 100 µM
NCI-H226 lung
  GI50: > 100 µM
  TGI: > 100 µM
LOX IMVI melanoma
  GI50: 17.2 µM
  TGI: 35.3 µM
SF-539 CNS
  GI50: 24.6 µM
  TGI: 79 µM
A549 NSCLC
  GI50: > 100 µM
  TGI: > 100 µM
SNB-19 CNS
  GI50: > 100 µM
  TGI: > 100 µM
OVCAR-4 ovarian
  GI50: > 100 µM
  TGI: > 100 µM
EKVX NSCLC
  GI50: > 100 µM
  TGI: > 100 µM
OVCAR-5 ovarian
  GI50: > 100 µM
  TGI: > 100 µM
HS 578T breast
  GI50: > 100 µM
  TGI: > 100 µM
HCT-15 colon
  GI50: > 100 µM
  TGI: > 100 µM
NCI/ADR-RES ovarian
  GI50: 89 µM
  TGI: > 100 µM
HOP-62 NSCLC
  GI50: > 100 µM
  TGI: > 100 µM
COLO 205 colon
  GI50: > 100 µM
  TGI: > 100 µM
K-562 leukemia
  GI50: 39.3 µM
  TGI: > 100 µM
UACC-62 melanoma
  GI50: > 100 µM
  TGI: > 100 µM
SR leukemia
  GI50: 52.1 µM
  TGI: > 100 µM
SN12C renal
  GI50: > 100 µM
  TGI: > 100 µM
SF-295 CNS
  GI50: > 100 µM
  TGI: > 100 µM
SW-620 colon
  GI50: 25 µM
  TGI: 57.9 µM
OVCAR-3 ovarian
  GI50: 27.4 µM
  TGI: > 100 µM
RPMI-8226 leukemia
  GI50: 38.5 µM
  TGI: > 100 µM
MDA-MB-435
  GI50: 16.1 µM
  TGI: 35.3 µM
NCI-H460 lung
  GI50: 96.9 µM
  TGI: > 100 µM
MOLT-4 leukemia
  GI50: 55.6 µM
  TGI: > 100 µM
IGROV1 ovarian
  GI50: > 100 µM
  TGI: > 100 µM
RXF 393 renal
  GI50: > 100 µM
  TGI: > 100 µM
UO-31 renal
  GI50: > 100 µM
  TGI: > 100 µM
KM12 colon
  GI50: > 100 µM
  TGI: > 100 µM
PC-3 prostate
  GI50: 0.85 µM
  TGI: > 100 µM
HCT-116 colon
  GI50: 20.3 µM
  TGI: 47.7 µM
BT-549 breast
  GI50: 19.8 µM
  TGI: 42.2 µM
